Data set [1] deals with HEK293T-mtkeima cells. In words: Functional test of mitophagy inducer, direct treatment without CCCP. The format is cell-based, human. The conditions noted are these: for Ability to induce mitophagy: HEK293T-mtkeima cells, number of cells in which mitophagy occurs/number of total cells. On the procedure: Seeding human embryonic kidney transformed cells HEK293T-mtkeima cells in a 96-well black ELISA Plate at 1.5*10^5 cells/ml, 100 μl per well; after 25 hours, adding UMI-77 and compounds I-1˜I-26 respectively, and setting up 3 replicates; under 37° C., 5% CO2 incubation conditions, taking picture with biotekcytation5 every few hours for a total of 20 hours. Taking the bright field as the focusing channel, and taking 9pictures per well, and processing the pictures by using the instrument software and converting into the degree of mitophagy strength, exemplifying by UMI-77 and Compound I-4, the results are shown in FIG. 1.
Note: The HEK293T-mtkeima cells used in the experiments are HEK293T-mtkeima cells obtained according to the method mentioned in the literature [Cen, X. et al. Nat Commun 11, 5731 (2020).], by using lentiviral packaging technology, and stably expressing mtkeima protein in HEK293T cells. The CCCP used in the experiments is purchased from TargetMol (Item No. T7081).

Data set [2] deals with HEK293T-mtkeima cells. As to the kind of experiment: Selective induction of mitophagy after CCCP-induced mitochondrial damage. Format: cell-based, human. The conditions noted are these: 5 uM or 10 uM CCCP pre-treatment compared with no CCCP treatment.
Data set [3] is described as follows: In vitro liver microsome stability test (mice). Format: in vitro ADME. Conditions: mice liver microsomes, NADPH, 37° C., 0-45 min. As to the method: (§1) Selecting Ketanserin as the reference compound. The specific method is as follows:
(§2) Preparing 0.1M K3PO4 (pH 7.4) buffer and 3×NADPH stock solution (6 mM, 5 mg/mL), and preheating in a 37° C. water bath; preparing of test compound and control compound spiking solution: adding 5 μL compound stock solution ([…]) into 95 μL acetonitrile; preparing of 1.5 μM spiking solution in microsomes (0.75 mg/mL): adding 1.5 μL spiking solution and 18.75 μL liver microsomes solution (20 mg/mL) into 479.75 μL K3PO4 buffer; taking 30 μL spiking solution in microsomes to the multi-well plate and incubating at 37° C. for 5 minutes; adding 15 μL NADPH stock solution into each well to start the reaction, and timing; respectively at 0 min, 5 min, 15 min, 30 min and 45 min, adding 150 μL of IS-containing acetonitrile solution to terminate the reaction; shaking for 10 mins and then centrifuging at 6000 rpm for 15 mins; taking 80 μL of the supernatant from each well for LC/MS detection and calculating T1/2.
(§3) Note: The mice and human liver microsomes used in the experiments are purchased from Xenotech.
On the technique in general: Microsomes from liver hold many membrane-bound enzymes, among them those of drug oxidation.

A short description of data set [4]: In vitro liver microsome stability test (human). Conditions: human liver microsomes, NADPH, 37° C., 0-45 min. Format: in vitro ADME. On the procedure:
as §1, §2, §3

As for `CN(c1cc(SCC(=O)O)c(O)c2ccccc12)S(=O)(=O)c1ccc(Br)cc1` [Compound I-1], in the data set with HEK293T-mtkeima cells [1], the “Ability to induce mitophagy” value is reported as “+++ (strong ability to induce mitophagy (number of cells in which mitophagy occurs/number of total cells >0.30))”. The “Selective induction of autophagy in damaged mitochondria (FIG. 2)” value in the data set with HEK293T-mtkeima cells [2] is on record as “more likely to induce autophagy in damaged mitochondria”. Besides, the Liver microsome stability entry in data set [3] and in data set [4] was “relatively superior stability” throughout.
For `O=C(O)CSc1cc(N(CCO)S(=O)(=O)c2ccc(Br)cc2)c2ccccc2c1O` [Compound I-2], the “Ability to induce mitophagy” value in the data set on HEK293T-mtkeima cells [1] is reported as “++ (moderate ability to induce mitophagy (number of cells in which mitophagy occurs/number of total cells is in the range of 0.2~0.3))”.
The same measure, in the same setting: under `O=C(O)CSc1cc(N(c2ccccc2)S(=O)(=O)c2ccc(Br)cc2)c2ccccc2c1O` [Compound I-3] stands “++ (moderate ability to induce mitophagy (number of cells in which mitophagy occurs/number of total cells is in the range of 0.2~0.3))”.
On to `CN=S(=O)(Nc1cc(SCC(=O)O)c(O)c2ccccc12)c1ccc(Br)cc1` (centres unmarked) [Compound I-4], for which the “Ability to induce mitophagy” value with HEK293T-mtkeima cells [1] is on record as “+++ (strong ability to induce mitophagy (number of cells in which mitophagy occurs/number of total cells >0.30))”. For the same compound, the “Strength of mitophagy induction compared with UMI-77 (FIG. 1)” value in the data set with HEK293T-mtkeima cells [1] (cells not treated with CCCP) is “induces mitophagy more strongly than UMI-77”. The Liver microsome stability result in data set [3] and in data set [4] was “relatively superior stability” in each case.
For the compound `O=C(O)CSc1cc(NS(=O)(=NC2CC2)c2ccc(Br)cc2)c2ccccc2c1O` (centres unmarked) [Compound I-5], the “Ability to induce mitophagy” value with HEK293T-mtkeima cells [1] is “+++ (strong ability to induce mitophagy (number of cells in which mitophagy occurs/number of total cells >0.30))”.
With `O=C(O)CSc1cc(NS(=O)(=NC2COC2)c2ccc(Br)cc2)c2ccccc2c1O` (centres unmarked) [Compound I-6], the “Ability to induce mitophagy” value with HEK293T-mtkeima cells [1] was “+++ (strong ability to induce mitophagy (number of cells in which mitophagy occurs/number of total cells >0.30))”.
On to `O=C(O)CSc1cc(NS(=O)(=Nc2ccccc2)c2ccc(Br)cc2)c2ccccc2c1O` (centres unmarked) [Compound I-8], for which the “Ability to induce mitophagy” value in the data set with HEK293T-mtkeima cells [1] is “++ (moderate ability to induce mitophagy (number of cells in which mitophagy occurs/number of total cells is in the range of 0.2~0.3))”.
Same read-out and setting: the result for `CN=S(=O)(c1ccc(Br)cc1)N(C)c1cc(SCC(=O)O)c(O)c2ccccc12` (centres unmarked) [Compound I-9] reads “++ (moderate ability to induce mitophagy (number of cells in which mitophagy occurs/number of total cells is in the range of 0.2~0.3))”; that for `O=C(O)CSc1cc(N2CCN=S2(=O)c2ccc(Br)cc2)c2ccccc2c1O` (centres unmarked) [Compound I-10], “++ (moderate ability to induce mitophagy (number of cells in which mitophagy occurs/number of total cells is in the range of 0.2~0.3))”; that for `O=C(O)CSc1cc(N2CCCN=S2(=O)c2ccc(Br)cc2)c2ccccc2c1O` (centres unmarked) [Compound I-11], “++ (moderate ability to induce mitophagy (number of cells in which mitophagy occurs/number of total cells is in the range of 0.2~0.3))”.
The same measure, in the same setting: the result for `CN=S(=O)(Nc1cc(SCc2nn[nH]n2)c(O)c2ccccc12)c1ccc(Br)cc1` (centres unmarked) [Compound I-12] reads “+++ (strong ability to induce mitophagy (number of cells in which mitophagy occurs/number of total cells >0.30))”.
On the same count and under the same terms, the result for `CN=S(=O)(Nc1cc(SCc2nnc[nH]2)c(O)c2ccccc12)c1ccc(Br)cc1` (centres unmarked) [Compound I-13] reads “++ (moderate ability to induce mitophagy (number of cells in which mitophagy occurs/number of total cells is in the range of 0.2~0.3))”; that for `CN=S(=O)(Nc1cc(SCC(=O)O)c(OC(C)=O)c2ccccc12)c1ccc(Br)cc1` (centres unmarked) [Compound I-14], “++ (moderate ability to induce mitophagy (number of cells in which mitophagy occurs/number of total cells is in the range of 0.2~0.3))”; that for `CN=S(=O)(Nc1cc(SCC(=O)O)c(O)c2ccccc12)c1ccc(Oc2ccccc2)cc1` (centres unmarked) [Compound I-17], “+++ (strong ability to induce mitophagy (number of cells in which mitophagy occurs/number of total cells >0.30))”.
In the case of `CN=S(=O)(Nc1cc(SCC(=O)O)c(O)c2ccccc12)c1ccc(-c2ccccc2)cc1` (centres unmarked) [Compound I-18], the “Ability to induce mitophagy” value with HEK293T-mtkeima cells [1] was “++ (moderate ability to induce mitophagy (number of cells in which mitophagy occurs/number of total cells is in the range of 0.2~0.3))”.
On the same count and under the same terms, under `CN=S(=O)(Nc1cc(SCC(=O)O)c(O)c2ccccc12)c1ccc(C(F)(F)F)cc1` (centres unmarked) [Compound I-19] stands “+++ (strong ability to induce mitophagy (number of cells in which mitophagy occurs/number of total cells >0.30))”; under `CN=S(=O)(Nc1cc(SCC(=O)O)c(O)c2ccccc12)c1ccc2ccccc2c1` (centres unmarked) [Compound I-20], “++ (moderate ability to induce mitophagy (number of cells in which mitophagy occurs/number of total cells is in the range of 0.2~0.3))”; under `CN=S(=O)(Nc1cc(SCC(=O)O)c(O)c2ccccc12)c1cccs1` (centres unmarked) [Compound I-21], “+++ (strong ability to induce mitophagy (number of cells in which mitophagy occurs/number of total cells >0.30))”.
Still for that read-out and setting: under `CN=S(=O)(Nc1cc(SCC(=O)O)c(O)c2ccccc12)c1cccc(-c2ccccc2)c1` (centres unmarked) [Compound I-22] stands “++ (moderate ability to induce mitophagy (number of cells in which mitophagy occurs/number of total cells is in the range of 0.2~0.3))”.
Regarding `O=C(O)CSc1cc(NS(=O)(=O)c2ccc(Br)cc2)c2ccccc2c1O` [UMI-77, reference compound], in the data set on HEK293T-mtkeima cells [1], the “Ability to induce mitophagy” value is on record as “+ (weak ability to induce mitophagy (number of cells in which mitophagy occurs/number of total cells is in the range of 0.1~0.2))”. In addition, the “Selective induction of autophagy in damaged mitochondria (FIG. 2)” value in the data set on HEK293T-mtkeima cells [2] is “unable to selectively induce autophagy in damaged mitochondria”. For the same compound, the Liver microsome stability result in data set [3] and in data set [4] was “unstable” throughout.

These data come from US20240400500A1, “SMALL-MOLECULE COMPOUND HAVING NAPHTHALENETHIOL ETHER STRUCTURE, AND USE THEREOF” (HANGZHOU PHECDAMED CO., LTD., priority 2021, published 2024).
